In US4857516A, “Coumaran derivatives and their pharmaceutical use” (Takeda Chemical Industries, Ltd., priority 1986, dated 1989):

Columns and labels:
[1] = test system: lipid peroxide production in rat brain homogenates; assay: Inhibitory action on lipid peroxide production in rat brain homogenates; type: biochemical; details: 5 v/v % rat brain homogenate, pH 7.4, 1 hour at 37° C.; read-out: Inhibition (IC50) of lipid peroxide production
Method: The male SD rat (12 weeks) brain tissue was extracted under anesthesia after depletion. The extracted brain tissue was used as 5 v/v % homogenate in phosphate buffer (pH 7.4). After incubation of the homogenate for 1 hour at 37° C., the peroxide produced was determined by the thiobarbituric acid method according to the method described in Analytical Biochemistry, 95, 551 (1979).
Before incubation, test compounds were added in 5 v/v % homogenate so that their final concentration becomes 10^-5 M. […]

5-lipoxygenase = molecular target: T1, 5-lipoxygenase (Rattus norvegicus, UniProt P12527); assay: Inhibition of 5-lipoxygenase (5-HETE production in RBL-1 cells); type: cell-based
T1 construct: endogenous in cells; host or cells: RBL-1 (rat basophilic leukemia cells)
T1 sequence (P12527 1-673): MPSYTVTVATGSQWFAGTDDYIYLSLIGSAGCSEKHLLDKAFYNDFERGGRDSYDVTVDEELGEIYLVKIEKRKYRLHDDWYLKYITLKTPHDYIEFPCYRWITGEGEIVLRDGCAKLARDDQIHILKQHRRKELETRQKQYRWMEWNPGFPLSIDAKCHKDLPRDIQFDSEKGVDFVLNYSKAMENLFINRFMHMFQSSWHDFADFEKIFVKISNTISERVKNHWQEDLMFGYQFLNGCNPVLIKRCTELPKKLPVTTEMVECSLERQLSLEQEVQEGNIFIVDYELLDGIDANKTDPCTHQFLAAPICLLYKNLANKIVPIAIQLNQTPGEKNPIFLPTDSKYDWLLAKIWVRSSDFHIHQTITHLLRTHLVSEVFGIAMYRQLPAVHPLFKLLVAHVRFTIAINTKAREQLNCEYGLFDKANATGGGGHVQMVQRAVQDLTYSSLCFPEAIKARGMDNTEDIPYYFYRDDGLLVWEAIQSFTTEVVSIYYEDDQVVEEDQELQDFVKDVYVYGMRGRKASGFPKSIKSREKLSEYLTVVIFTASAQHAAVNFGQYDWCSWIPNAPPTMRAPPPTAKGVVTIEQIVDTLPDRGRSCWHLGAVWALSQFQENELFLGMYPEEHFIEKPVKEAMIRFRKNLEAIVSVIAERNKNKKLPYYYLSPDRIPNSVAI
Method: 10^7 RBL-1 cells (rat basophilic leukemia cells) were suspended in 0.5 ml of MCM (mast cell medium). […] Then 4 ml of ethanol was added, and the mixture was well shaken and kept at room temperature for 10 min.
The mixture was centrifuged for 10 min. (2000 rpm), and the supernatant was separated. The supernatant obtained was concentrated to dryness under reduced pressure. To the residue 0.5 ml of 60 v/v % aqueous methanol was added. One hundred μl of this solution was subjected to high performance liquid chromatography for quantitative analysis of 5-HETE (5-hydroxyeicosatetraenoic acid). The amount of 5-HETE was determined by measurement of the absorbance at 237 nm with a UV absorption monitor.
The inhibitory effect (IE) of production of 5-HETE is expressed by (1-b/a)×100, wherein a is the peak height or the area corrected with the peak due to the internal standard in the absence of the compound (I) or a pharmaceutically acceptable salt thereof, and b is the peak height or peak area corrected with the peak due to the internal standard in the presence of the compound (I) or a pharmaceutically acceptable salt thereof.

[2] = test system: generation of HHT in rat platelets; assay: Inhibitory effect on the generation of 12-hydroxyheptadeca-5,8,10-trienoic acid (HHT) in rat platelets; type: cell-based; details: rat platelet rich plasma
Method: Blood was collected in 3.2 v/v % sodium citrate (0.8 ml for 7.2 ml of blood) from the abdominal aorta of male Wister rats (Jcl, 12 to 15 weeks) anesthesized with pentobarbital. Platelet rich plasma (PRP) was obtained by centrifuging the blood at 800 rpm for 10 min at room temperature. Platelet poor plasma (PPP) was prepared by centrifuging the remaining blood at 3,000 rpm for 10 min. The platelet concentration of PRP was adjusted to 1,000,000/μl with PPP. […]
The reaction was stopped by adding 100 ml of ethanol and the mixture was allowed to stand for 10 min. at room temperature. The reaction mixture was centrifuged at 2,000 rpm for 10 min. and the supernatant obtained was evaporated. To the concentrate, 0.2 ml of 60 v/v % aqueous ethanol was added.
100 μl of this solution was subjected to high performance liquid chromatography for quantitative analysis of HHT. The amount of HHT was determined by measurement of absorbance at 237 nm with a UV absorption monitor.
The inhibitory effect (IE) on the generation of HHT is expressed by (1-b/a)×100, wherein a is the peak height or the peak area corrected with the peak due to the internal standard in the absence of the compound (I) or a pharmaceutically acceptable salt thereof, and b is the peak height or the peak area corrected with the peak due to the internal standard in the compound (I) or a pharmaceutically acceptable salt thereof.

[3] = test system: neurological deficits caused by spinal cord compression in rats; assay: Functional neurologic impairment induced by spinal cord compression in rats; type: in vivo, rat; details: 40 mg/kg, p.o.
From the text: (§1) Male Jcl:Wistar rats, weighing about 350 g at the time of spinal cord compression were used. A spinal cord injury was produced in rats by compressing the spinal cord with a stainless screw of 2.8 mm length and 2 mm diameter at thoracic 11 (T11) level under pentobarbital anesthesia. On the day of the operation, the screw was placed so that the end was just above the subarachnoid membrane of the spinal cord.
(§2) On the following day, the screw was completely tightened to compress the spinal cord without penetrating the subarachnoid membrane. After compression of the spinal cord for 60 min., the screw was removed. Test compounds were given orally 5 min. after the removal of screw.
0; flaccid paralysis, no movement of hind limbs, no response to pinching of tail with foreceps (i.e. movement of fore limbs, biting foreceps, vocalization)
1; no movement of hind limbs, but responds to pinching of tail with foreceps
2; uncoordinated movement (loss of coordination between limbs), but can not support own weight
3; movement with an impairment (general coordination between limbs), but can not support own weight
4; walking with a slight ataxia of the hind limbs, but can support own weight
(§3) The median neurological score of the drug-treated groups were compared with that saline-teated control group. Statistical analysis was done using the Mann-Whitney U-test. The incidence of rats showing urinary incontinence was also compared by the .chi.^2 -test.

[4] = test system: urinary incontinence in rats with spinal cord compression; assay: Incidence of rats showing urinary incontinence (spinal cord compression); type: in vivo, rat; set-up: Incidence of rats showing urinary incontinence: unit not given here; details: 40 mg/kg, p.o.
From the text: as §1, §2, §3

[5] = test system: excitatory behavior induced by FeCl2 in mice; assay: Excitatory behavior induced by spinal intrathecal injection of FeCl2 in mice; type: in vivo, mouse; details: 100 mg/kg p.o.
Method: Male Slc:ICP mice (5 weeks) were used. Each group consisted of 10 mice. 5 μl of 50 mM FeCl2 in saline was injected into spinal subarchnoid space betwen the 1st sacral and the 6th lumbar segment, the behavioral responses were observed from 15 min. to 1 hr. after the intrathecal injection of FeCl2 and scored as follows.
Score Behavioral responses
0: normal (no abnormal behavior)
1: vigorously biting lower abdomen or lower extremities
(a) extremely biting lower body with rolling
(b) hyperreactivity and agressive to external stmuli
at least one of above three behavioral changes were observed
4: tonic convulsion or paralysis of lower extremities.
The test compounds (100 mg/kg) were orally administered 30 min. prior to FeCl2 injection.

[6] = day 3, Ex. 7 *p < 0.05, Ex. 20 **p < 0.01

Q: How did the IC50 [1] turn out when `Cc1c(C)c2c(c(C)c1O)C(c1ccc(F)cc1)C(C)(C)O2` (stereo not drawn) [Example 7, 3-(4-fluorophenyl)-5-hydroxy-2,2,4,6,7-pentamethyl-2,3-dihydrobenzofuran] was run?
A: 230 nM

Q: And the inhibition at 1 µM (5-lipoxygenase; 10^-6 M)?
A: 99%

Q: And the inhibition at 0.1 µM (5-lipoxygenase; 10^-7 M)?
A: 43%

Q: And the inhibition at 0.01 µM (5-lipoxygenase; 10^-8 M)?
A: 13%

Q: And the inhibition at 100 µM ([2]; 10^-4 M)?
A: 49%

Q: And the inhibition at 10 µM ([2]; 10^-5 M)?
A: 35%

Q: And the “neurological score (median value)” value ([3]; day 1, 0 flaccid paralysis to 5 normal gait, Ex. 20 **p < 0.01)?
A: 2

Q: What about the “neurological score (median value)” value [3, 6] of the same compound?
A: 2

Q: And the “neurological score (median value)” value ([3]; day 7, Ex. 20 **p < 0.01)?
A: 3

Q: What about the “neurological score (median value)” value ([3]; day 14, Ex. 20 *p < 0.05) of the same compound?
A: 4

Q: And the “neurological impairment caused by spinal cord compression (in words)” value ([3]; Table 4(III))?
A: ameliorated the neurological impairment

Q: What about the “Incidence of rats showing urinary incontinence” value ([4]; day 1, Ex. 20 **p < 0.01) of the same compound?
A: 42.9

Q: What about the “Incidence of rats showing urinary incontinence” value ([4]; day 2, Ex. 20 **p < 0.01) of the same compound?
A: 14.3

Q: And the “Incidence of rats showing urinary incontinence” value [4, 6]?
A: 7.1

Q: And the “Incidence of rats showing urinary incontinence” value ([4]; day 5, Ex. 20 **p < 0.01)?
A: 7.1

Q: What about the “Incidence of rats showing urinary incontinence” value ([4]; day 7, Ex. 7 *p < 0.05) of the same compound?
A: 0

Q: What about the “Incidence of rats showing urinary incontinence” value ([4]; day 10) of the same compound?
A: 0

Q: What about the “Incidence of rats showing urinary incontinence” value ([4]; day 14) of the same compound?
A: 0

Q: And the “incidence of urinary incontinence (in words)” value ([4]; Table 4(IV))?
A: reduced the incidence of urinary incontinence

Q: What about the “Score (mean behavioral score)” value ([5]; 30 min. prior to FeCl2, 0 normal to 5 death) of the same compound?
A: 0.3

Q: What about the “Percent inhibition (of mean score)” value ([5]; vs vehicle p.o.) of the same compound?
A: 93%
